The test system of one assay is HCT116 WT cells. Kind of assay: HCT116 WT (parent) cell line proliferation / cell viability (CellTiter-Glo, 6 days). Type of assay: cell-based. The following applies: Homo sapiens, HCT-116, 144 h, 6 days treatment. An outline of the steps:
(§1)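 Isogenic HCT116 parent and MTAP-knockout cells in RPMI 1640 + 10% FBS, plated overnight, then exposed to compound for 6 days (37 °C, 5% CO2). Viability by CellTiter-Glo luminescence. Dilutions: 8–9 points from 1 or 10 μM (1:3), or 22 points from 10 or 50 μM (1:2); IC50 by 4-parameter or Hill −1 fit.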

In another assay the test system is HCT116 MTAP null cells. Briefly: HCT116 MTAP null cell line proliferation / cell viability (CellTiter-Glo, 6 days). Type of assay: cell-based. The following applies: 144 h; HCT116 MTAP null cells, 6 days treatment, CellTiter-Glo cell viability; read-out: HCT-116 MTAP null IC50. An outline of the steps:
as §1
In general terms: In ATP-based viability assays light output follows the ATP content of the culture.

By IC50 is commonly meant the concentration that inhibits the measured activity by half. On to `C[C@H]1OCc2c1c(N)nc1ccc(C(=O)N(C)[C@H]3COCc4cc(Br)ccc43)cc21` (single isomer, unassigned) [Example 395], for which the IC50 with HCT116 WT cells was 10000 nM; with HCT116 MTAP null cells, 696 nM.
Turning to `CCN(C(=O)c1ccc2nc(N)c3c(c2c1)CO[C@@H]3C)[C@@H]1COCc2cc(Br)ccc21` (single isomer, unassigned) [Example 396], the concentration for half-maximal inhibition (IC50) with HCT116 WT cells was found to be 272 nM; in the assay on HCT116 MTAP null cells, 10 nM.
On to `CCN(C(=O)c1ccc2nc(N)c3c(c2c1)CO[C@@H]3C)[C@H]1COCc2cc(Br)ccc21` (single isomer, unassigned) [Example 397], for which the results for the IC50 with HCT116 WT cells and in the assay with HCT116 MTAP null cells were 18700 nM and 599 nM, respectively.
Turning to `CN(C(=O)c1cc2c3c(c(N)nc2cn1)COC3)[C@@H]1COCc2cc(Br)ccc21` (single isomer, unassigned) [Example 398], the IC50 came out at 911 nM with HCT116 WT cells and 20 nM in the assay with HCT116 MTAP null cells.
`CN(C(=O)c1cc2c3c(c(N)nc2cn1)COC3)[C@H]1COCc2cc(Br)ccc21` (single isomer, unassigned) [Example 399]: the IC50 with HCT116 WT cells came out at 10000 nM; with HCT116 MTAP null cells, 1330 nM.
The matching figures for `COc1ccc2c(c1)COC[C@H]2N(C)C(=O)c1cc2c3c(c(N)nc2cc1F)COC3` (single isomer, unassigned) [Example 400]: 2110 nM and 50 nM.
The corresponding values for `CN(C(=O)c1cc2c3c(c(N)nc2cc1F)COC3)[C@@H]1CCOc2cc(C(F)(F)F)ccc21` (single isomer, unassigned) [Example 401] are 6570 nM and 148 nM.
As to `CN(C(=O)c1cc2c3c(c(N)nc2cc1Cl)COC3)[C@@H]1COCc2nc(C#N)ccc21` (single isomer, unassigned) [Example 402], the IC50 was 436 nM with HCT116 WT cells and 8 nM in the assay on HCT116 MTAP null cells.
The corresponding values for `CN(C(=O)c1cc2c3c(c(N)nc2cc1Cl)COC3)[C@H]1COCc2nc(C#N)ccc21` (single isomer, unassigned) [Example 403] are 25800 nM and 463 nM.
Turning to `CN(C(=O)c1cc2c3c(c(N)nc2cc1Cl)COC3)[C@@H]1COCc2c1ccc(C(F)(F)F)c2F` (single isomer, unassigned) [Example 404], the figures for the IC50 with HCT116 WT cells and in the assay with HCT116 MTAP null cells were 250 nM and 9 nM, respectively.
As for `CN(C(=O)c1cc2c3c(c(N)nc2cc1Cl)COC3)[C@H]1COCc2c1ccc(C(F)(F)F)c2F` (single isomer, unassigned) [Example 405], the IC50 with HCT116 WT cells was 14700 nM; in the assay on HCT116 MTAP null cells, 696 nM.
For the molecule `C[C@H]1OC[C@@H](N(C)C(=O)c2cc3c4c(c(N)nc3nc2Cl)COC4)c2ccc(C(F)(F)F)cc21` (single isomer, unassigned) [Example 406], the IC50 amounted to 322 nM with HCT116 WT cells and 11 nM in the assay with HCT116 MTAP null cells.
With `CN(C(=O)c1ccc2nc(N)c3cnn(C)c3c2c1)[C@@H]1COCc2c(F)cncc21` (single isomer, unassigned) [Example 407], the results for the IC50 in the assay with HCT116 WT cells and in the assay on HCT116 MTAP null cells were 23300 nM and 554 nM, respectively.
Consider `COc1ccc2c(c1)COC[C@H]2N(C)C(=O)c1ccc2nc(N)c3cnn(C)c3c2c1` (single isomer, unassigned) [Example 408], for which the IC50 with HCT116 WT cells is 1710 nM; in the assay on HCT116 MTAP null cells it was 24 nM.
Regarding `CN(C(=O)c1ccc2nc(N)c3cnn(C)c3c2c1)[C@@H]1COCc2c1ccc(F)c2F` (single isomer, unassigned) [Example 409], the IC50 in the assay with HCT116 WT cells stood at 3910 nM; in the assay on HCT116 MTAP null cells, 48 nM.
The corresponding values for `CCOc1ccc2c(n1)COC[C@H]2N(C)C(=O)c1ccc2nc(N)c3cnn(C)c3c2c1` (single isomer, unassigned) [Example 410] are 1470 nM and 21 nM.
Take `CN(C(=O)c1ccc2nc(N)c3cnn(C)c3c2c1)[C@@H]1CCCc2nc(C(F)(F)F)ccc21` (single isomer, unassigned) [Example 411]: the half-maximal inhibitory concentration (IC50) stood at 6270 nM in the assay with HCT116 WT cells and 83 nM with HCT116 MTAP null cells.
Consider `CN(C(=O)c1ccc2nc(N)c3cnn(C)c3c2c1)[C@@H]1COCc2cc(Br)ccc21` (single isomer, unassigned) [Example 412], for which the values for the IC50 with HCT116 WT cells and with HCT116 MTAP null cells were 228 nM and 4 nM, respectively.
As for `CN(C(=O)c1ccc2nc(N)c3cnn(C)c3c2c1)[C@H]1COCc2cc(Br)ccc21` (single isomer, unassigned) [Example 413], the figures for the IC50 with HCT116 WT cells and in the assay with HCT116 MTAP null cells were 7990 nM and 360 nM, respectively.
Regarding `C[C@H]1OC[C@@H](N(C)C(=O)c2ccc3nc(N)c4cnn(C)c4c3c2)c2ccc(C(F)(F)F)cc21` (single isomer, unassigned) [Example 414], the half-maximal inhibitory concentration (IC50) with HCT116 WT cells was found to be 19 nM; with HCT116 MTAP null cells, 1 nM.
The corresponding values for `C[C@@H]1OC[C@H](N(C)C(=O)c2ccc3nc(N)c4cnn(C)c4c3c2)c2ccc(C(F)(F)F)cc21` (single isomer, unassigned) [Example 415] are 2630 nM and 78 nM.
`CN(C(=O)c1ccc2nc(N)c3cnn(C)c3c2c1)[C@@H]1COCc2c1ccc(C(F)(F)F)c2F` (single isomer, unassigned) [Example 416]: the 50% inhibitory concentration (IC50) turned out to be 414 nM in the assay on HCT116 WT cells and 6 nM with HCT116 MTAP null cells.
Regarding `CN(C(=O)c1ccc2nc(N)c3cnn(C)c3c2c1)[C@H]1COCc2c1ccc(C(F)(F)F)c2F` (single isomer, unassigned) [Example 417], the IC50 in the assay on HCT116 WT cells was found to be 6100 nM; with HCT116 MTAP null cells it was 841 nM.
The corresponding values for `CN(C(=O)c1ccc2nc(N)c3cnn(C)c3c2c1)[C@@H]1COCc2nc(Br)ccc21` (single isomer, unassigned) [Example 418] are 421 nM and 3 nM.
The matching figures for `CN(C(=O)c1ccc2nc(N)c3cnn(C)c3c2c1)[C@H]1COCc2nc(Br)ccc21` (single isomer, unassigned) [Example 419]: 26400 nM and 545 nM.
The corresponding values for `COc1ccc2c(c1)COC[C@H]2N(C)C(=O)c1cc2c(cn1)nc(N)c1cnn(C)c12` (single isomer, unassigned) [Example 420] are 439 nM and 15 nM.
`COc1ccc2c(c1)COC[C@@H]2N(C)C(=O)c1cc2c(cn1)nc(N)c1cnn(C)c12` (single isomer, unassigned) [Example 421]: the IC50 in the assay with HCT116 WT cells turned out to be 35200 nM; with HCT116 MTAP null cells, 792 nM.
As to `CN(C(=O)c1cc2c(cn1)nc(N)c1cnn(C)c12)[C@@H]1COCc2c1ccc(C(F)(F)F)c2F` (single isomer, unassigned) [Example 422], the 50% inhibitory concentration (IC50) in the assay on HCT116 WT cells is 241 nM; with HCT116 MTAP null cells, 10 nM.
Regarding `CN(C(=O)c1cc2c(cc1F)nc(N)c1cnn(C)c12)[C@@H]1COCc2ncccc21` (single isomer, unassigned) [Example 423], the IC50 in the assay on HCT116 WT cells was 1610 nM; with HCT116 MTAP null cells it was 39 nM.
The matching figures for `CN(C(=O)c1cc2c(cc1F)nc(N)c1cnn(C)c12)[C@H]1COCc2ncccc21` (single isomer, unassigned) [Example 424]: 18600 nM and 593 nM.
Turning to `CN(C(=O)c1cc2c(cc1F)nc(N)c1cnn(C)c12)[C@@H]1COCc2c(F)cncc21` (single isomer, unassigned) [Example 425], the IC50 with HCT116 WT cells was 13400 nM; with HCT116 MTAP null cells, 158 nM.
For `CN(C(=O)c1cc2c(cc1F)nc(N)c1cnn(C)c12)[C@H]1COCc2c(F)cncc21` (single isomer, unassigned) [Example 426], the IC50 with HCT116 WT cells amounted to 27900 nM; in the assay with HCT116 MTAP null cells, 355 nM.
Regarding `COc1ccc2c(c1)COC[C@H]2N(C)C(=O)c1cc2c(cc1F)nc(N)c1cnn(C)c12` (single isomer, unassigned) [Example 427], the results for the IC50 in the assay on HCT116 WT cells and in the assay on HCT116 MTAP null cells were 247 nM and 8 nM, respectively.
Consider `COc1ccc2c(c1)COC[C@@H]2N(C)C(=O)c1cc2c(cc1F)nc(N)c1cnn(C)c12` (single isomer, unassigned) [Example 428], for which the IC50 stood at 8340 nM in the assay on HCT116 WT cells and 275 nM in the assay with HCT116 MTAP null cells.
Consider `CN(C(=O)c1cc2c(cc1F)nc(N)c1cnn(C)c12)[C@@H]1CCCc2nc(C(F)(F)F)ccc21` (single isomer, unassigned) [Example 429], for which the figures for the IC50 in the assay with HCT116 WT cells and in the assay with HCT116 MTAP null cells were 2350 nM and 49 nM, respectively.
Turning to `CN(C(=O)c1cc2c(cc1F)nc(N)c1cnn(C)c12)[C@@H]1COCc2cc(OC(F)(F)F)ccc21` (single isomer, unassigned) [Example 430], the IC50 is 75 nM in the assay with HCT116 WT cells and 3 nM in the assay on HCT116 MTAP null cells.
Turning to `CN(C(=O)c1cc2c(cc1F)nc(N)c1cnn(C)c12)[C@H]1COCc2cc(OC(F)(F)F)ccc21` (single isomer, unassigned) [Example 431], the IC50 in the assay with HCT116 WT cells was 5880 nM; in the assay with HCT116 MTAP null cells, 305 nM.
Take `CN(C(=O)c1cc2c(cc1F)nc(N)c1cnn(C)c12)[C@@H]1COCc2c1ccc(C(F)(F)F)c2F` (single isomer, unassigned) [Example 432]: the IC50 worked out at 127 nM in the assay with HCT116 WT cells and 9 nM with HCT116 MTAP null cells.
Turning to `CN(C(=O)c1cc2c(cc1F)nc(N)c1cnn(C)c12)[C@H]1COCc2c1ccc(C(F)(F)F)c2F` (single isomer, unassigned) [Example 433], the IC50 in the assay on HCT116 WT cells was determined as 3280 nM; with HCT116 MTAP null cells it was 418 nM.
`CN(C(=O)c1cc2c(cc1F)nc(N)c1cnn(C)c12)[C@@H]1CC(C)(C)Cc2nc(C(F)(F)F)ccc21` (single isomer, unassigned) [Example 434]: the 50% inhibitory concentration (IC50) amounted to 11500 nM with HCT116 WT cells and 223 nM with HCT116 MTAP null cells.
The matching figures for `CN(C(=O)c1cc2c(cc1F)nc(N)c1cnn(C)c12)[C@H]1CC(C)(C)Cc2nc(C(F)(F)F)ccc21` (single isomer, unassigned) [Example 435]: 13400 nM and 320 nM.
As to `Cc1cc2nc(N)c3cnn(C)c3c2cc1C(=O)N(C)[C@@H]1COCc2c1ccc(C(F)(F)F)c2F` (single isomer, unassigned) [Example 436], the half-maximal inhibitory concentration (IC50) in the assay on HCT116 WT cells is 23 nM; in the assay on HCT116 MTAP null cells it was 2 nM.

These data come from patent US20240124442A1, “TRICYCLIC-AMIDO-BICYCLIC PRMT5 INHIBITORS” (AMGEN INC., priority 2021, published 2024).
